Test results from ChEMBL document CHEMBL4342417, “Design, synthesis and evaluation of novel phenothiazine derivatives as inhibitors of breast cancer stem cells” (Eur J Med Chem, 2019).
Calls of active or inactive are those of the source. The calls are words filed in the database; no cut-off is given here.

What was measured:
MCF7 [1] = assay: Antiproliferative activity against human MCF7 cells assessed as reduction in cell viability incubated for 2 days by MTT assay; format: functional, cell-based; conditions: MCF7, 48 h
MCF7 [2] = assay: Inhibition of colony formation in human MCF7 cells at 2.83 uM incubated for 14 days with replacement of medium for every 3 or 4 days by crystal violet staining based visual analysis relative to control; format: functional
SK-BR-3 [3] = assay: Antiproliferative activity against human SKBR3 cells assessed as reduction in cell viability incubated for 2 days by MTT assay; format: functional, cell-based; conditions: SK-BR-3, 48 h
KG-1a = assay: Antiproliferative activity against human KG1a cells assessed as reduction in cell viability incubated for 2 days by MTT assay; format: functional, cell-based; conditions: 48 h
SUM-159-PT [4] = assay: Inhibition of mammosphere formation in human SUM159 cells assessed as reduction in number of mammosphere at 2 uM incubated for 10 days by microscopic analysis; format: functional
MDA-MB-231 [5] = assay: Antiproliferative activity against human MDA-MB-231 cells assessed as reduction in cell viability incubated for 2 days by MTT assay; format: functional, cell-based; conditions: MDA-MB-231, 48 h
SUM-159-PT [6] = assay: Antiproliferative activity against human SUM159 cells assessed as reduction in cell viability incubated for 2 days by MTT assay; format: functional, cell-based; conditions: 48 h
MDA-MB-231 [7] = assay: Inhibition of cell migration of human MDA-MB-231 cells at 5.40 uM incubated for 48 hrs by scratch wound healing assay; format: functional, cell-based
[8] = Toxicity in zebra fish assessed as survival rate at 250 uM observed for 24 hrs; set-up: species or system Danio rerio; conditions: zebrafish
MCF7 [9] = assay: Potency index, ratio of IC50 of TFP to IC50 of compound for antiproliferative activity against human MCF7 cells assessed as reduction in cell viability incubated for 2 days by MTT assay; format: functional
MDA-MB-231 [10] = assay: Potency index, ratio of IC50 of TFP to IC50 of compound for antiproliferative activity against human MDA-MB-231 cells assessed as reduction in cell viability incubated for 2 days by MTT assay; format: functional
SUM-159-PT [11] = assay: Potency index, ratio of IC50 of TFP to IC50 of compound for antiproliferative activity against human SUM159 cells assessed as reduction in cell viability incubated for 2 days by MTT assay; format: functional
SK-BR-3 [12] = assay: Potency index, ratio of IC50 of TFP to IC50 of compound for antiproliferative activity against human SKBR3 cells assessed as reduction in cell viability incubated for 2 days by MTT assay; format: functional
MCF7 [13] = assay: Inhibition of colony formation in human MCF7 cells at 0.37 uM incubated for 14 days with replacement of medium for every 3 or 4 days by crystal violet staining based visual analysis relative to control; format: functional
SUM-159-PT [14] = assay: Inhibition of mammosphere formation in human SUM159 cells assessed as reduction in number of mammosphere at 1 uM incubated for 10 days by microscopic analysis; format: functional
MDA-MB-231 [15] = assay: Downregulation of NF-kappaB-p65 expression in human MDA-MB-231 cells incubated for 48 hrs by Western blot analysis; format: functional, cell-based
MDA-MB-231 [16] = assay: Inhibition of cell migration of human MDA-MB-231 cells incubated for 48 hrs by scratch wound healing assay; format: functional, cell-based
SUM-159-PT [17] = assay: Inhibition of mammosphere formation in human SUM159 cells incubated for 10 days by microscopic analysis; format: functional, cell-based
MCF7 [18] = assay: Inhibition of colony formation in human MCF7 cells incubated for 14 days with replacement of medium for every 3 or 4 days by crystal violet staining based visual analysis; format: functional, cell-based
SUM-159-PT [19] = assay: Inhibition of mammosphere formation in human SUM159 cells assessed as reduction in number of mammosphere at 0.5 uM incubated for 10 days by microscopic analysis; format: functional
MCF7 [20] = assay: Inhibition of colony formation in human MCF7 cells at 0.74 uM incubated for 14 days with replacement of medium for every 3 or 4 days by crystal violet staining based visual analysis relative to control; format: functional
[21] = molecular target: Transcription factor p65 (Homo sapiens) (UniProt Q04206); assay: Inhibition of LPS-stimulated NF-kappaB-p65 in human MDA-MB-231 cells incubated for 24 hrs by dual luciferase reporter gene assay; format: cell-based
Chain of Transcription factor p65 (Homo sapiens) (Q04206 whole entry): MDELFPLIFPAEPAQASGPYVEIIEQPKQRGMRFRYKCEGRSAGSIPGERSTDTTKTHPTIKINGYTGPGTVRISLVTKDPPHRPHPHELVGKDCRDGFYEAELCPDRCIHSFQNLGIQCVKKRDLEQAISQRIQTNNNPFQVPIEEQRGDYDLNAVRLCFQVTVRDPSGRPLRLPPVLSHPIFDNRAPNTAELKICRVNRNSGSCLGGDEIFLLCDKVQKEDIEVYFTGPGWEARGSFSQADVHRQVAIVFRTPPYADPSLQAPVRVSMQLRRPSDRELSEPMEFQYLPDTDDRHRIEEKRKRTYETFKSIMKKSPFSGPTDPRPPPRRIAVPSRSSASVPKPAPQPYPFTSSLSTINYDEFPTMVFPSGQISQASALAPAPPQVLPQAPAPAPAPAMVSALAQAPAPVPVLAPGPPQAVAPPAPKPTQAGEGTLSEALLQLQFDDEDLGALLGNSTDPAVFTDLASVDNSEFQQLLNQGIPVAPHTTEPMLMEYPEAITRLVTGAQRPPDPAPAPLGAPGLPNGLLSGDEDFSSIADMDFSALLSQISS

MCF7 [22] = assay: Inhibition of colony formation in human MCF7 cells at 0.18 uM incubated for 14 days with replacement of medium for every 3 or 4 days by crystal violet staining based visual analysis relative to control; format: functional

IC50 (MCF7 [1])	IC50 (SK-BR-3 [3])	IC50 (MDA-MB-231 [5])	Compound	IC50 (SUM-159-PT [6])	other results
11.3 µM	15.9 µM	21.6 µM	CN1CCN(CCCN2c3ccccc3Sc3ccc(C(F)(F)F)cc32)CC1 [TRIFLUOPERAZINE]	17 µM	inhibition at 2.83 µM (MCF7 [2]): 63.8%; IC50 (KG-1a): 4.58 µM; Activity (SUM-159-PT [4]): 12; inhibition (MDA-MB-231 [7]): Active
> 50 µM	> 50 µM	> 50 µM	COCCN(CCCN1c2ccccc2Sc2ccc(C(F)(F)F)cc21)CCOC	29.9 µM	
36.7 µM	27.2 µM	10.3 µM	CSc1ccc2c(c1)N(CCCN(CCO)CCO)c1ccccc1S2	24.6 µM	
1.55 µM	8.89 µM	6.4 µM	O=C(CCC(=O)N1CCN(CCCN2c3ccccc3Sc3ccccc32)CC1)OCC#CCOc1no[n+]([O-])c1S(=O)(=O)c1ccccc1	2.85 µM	Ratio IC50 (MCF7 [9]): 7
> 50 µM	> 50 µM	> 50 µM	O=C1CC(c2ccc(O)cc2)Oc2cc(O)c(CN3CCN(CCCN4c5ccccc5Sc5ccc(C(F)(F)F)cc54)CC3)c(O)c21 (configuration not stated)	25 µM	
33.6 µM	43.2 µM	6.09 µM	OCCN(CCO)CCCN1c2ccccc2Sc2ccc(C(F)(F)F)cc21	46 µM	
> 50 µM	> 50 µM	> 50 µM	OCCN(CCO)CCCN1c2ccccc2Sc2ccccc21	> 50 µM	
6.96 µM	1.77 µM	6.04 µM	O=C(CCC(=O)N1CCN(CCCN2c3ccccc3Sc3ccc(C(F)(F)F)cc32)CC1)NCCOc1no[n+]([O-])c1S(=O)(=O)c1ccccc1	1.98 µM	Ratio IC50 (MDA-MB-231 [10]): 4 - 15; Ratio IC50 (SUM-159-PT [11]): 9; Ratio IC50 (SK-BR-3 [12]): 4 - 9
11.9 µM	3.91 µM	3.06 µM	CSc1ccc2c(c1)N(CCCN1CCN(C(=O)CCC(=O)OCCOCCOc3no[n+]([O-])c3S(=O)(=O)c3ccccc3)CC1)c1ccccc1S2	4.31 µM	Ratio IC50 (MDA-MB-231 [10]): 7; Ratio IC50 (SUM-159-PT [11]): 4 - 9; Ratio IC50 (SK-BR-3 [12]): 4
12.2 µM	2.68 µM	3.41 µM	CSc1ccc2c(c1)N(CCCN1CCN(C(=O)CCC(=O)NCCOc3no[n+]([O-])c3S(=O)(=O)c3ccccc3)CC1)c1ccccc1S2	9.34 µM	Ratio IC50 (MDA-MB-231 [10]): 4 - 15; Ratio IC50 (SK-BR-3 [12]): 4 - 9
29.8 µM	> 50 µM	45.1 µM	COCCN(CCCN1c2ccccc2Sc2ccccc21)CCOC	35.3 µM	
5.58 µM	4.01 µM	1.43 µM	O=C(CCC(=O)N1CCN(CCCN2c3ccccc3Sc3ccccc32)CC1)NCCOc1no[n+]([O-])c1S(=O)(=O)c1ccccc1	4.17 µM	Ratio IC50 (MDA-MB-231 [10]): 4 - 15; Ratio IC50 (SUM-159-PT [11]): 4; Ratio IC50 (SK-BR-3 [12]): 4 - 9
> 50 µM	> 50 µM	> 50 µM	O=C1CC(c2ccccc2)Oc2cc(O)c(CN3CCN(CCCN4c5ccccc5Sc5ccccc54)CC3)c(O)c21 (configuration not stated)	> 50 µM	
6.09 µM	31.9 µM	40.5 µM	COCCN(CCCN1c2ccccc2Sc2ccc(SC)cc21)CCOC	18.3 µM	
7.26 µM	18 µM	5.89 µM	O=C(CCC(=O)N1CCN(CCCN2c3ccccc3Sc3ccc(C(F)(F)F)cc32)CC1)OCC#CCOc1no[n+]([O-])c1S(=O)(=O)c1ccccc1	5.44 µM	
> 50 µM	> 50 µM	> 50 µM	O=C1CC(c2ccc(O)cc2)Oc2cc(O)c(CN3CCN(CCCN4c5ccccc5Sc5ccccc54)CC3)c(O)c21 (configuration not stated)	> 50 µM	
> 50 µM	> 50 µM	> 50 µM	CSc1ccc2c(c1)N(CCCN1CCN(Cc3c(O)cc4c(c3O)C(=O)CC(c3ccccc3)O4)CC1)c1ccccc1S2 (configuration not stated)	> 50 µM	
12.2 µM	3.13 µM	14.8 µM	O=C(CCC(=O)N1CCN(CCCN2c3ccccc3Sc3ccccc32)CC1)OCCOCCOc1no[n+]([O-])c1S(=O)(=O)c1ccccc1	1.95 µM	Ratio IC50 (SUM-159-PT [11]): 4 - 9; Ratio IC50 (SK-BR-3 [12]): 4
	18.2 µM	14.2 µM	CSc1ccc2c(c1)N(CCC1CCCCN1C)c1ccccc1S2 (configuration not stated) [THIORIDAZINE]	14.5 µM	IC50 (KG-1a): 6.01 µM
> 50 µM	> 50 µM	> 50 µM	O=C1CC(c2ccccc2)Oc2cc(O)c(CN3CCN(CCCN4c5ccccc5Sc5ccc(C(F)(F)F)cc54)CC3)c(O)c21 (configuration not stated)	> 50 µM	
3.31 µM	10.1 µM	3.12 µM	O=C(CCC(=O)N1CCN(CCCN2c3ccccc3Sc3ccc(C(F)(F)F)cc32)CC1)OCCOCCOc1no[n+]([O-])c1S(=O)(=O)c1ccccc1	3.36 µM	Ratio IC50 (MDA-MB-231 [10]): 7; Ratio IC50 (SUM-159-PT [11]): 4 - 9; Ratio IC50 (MCF7 [9]): 3
> 50 µM	> 50 µM	> 50 µM	CSc1ccc2c(c1)N(CCCN1CCN(Cc3c(O)cc4c(c3O)C(=O)CC(c3ccc(O)cc3)O4)CC1)c1ccccc1S2 (configuration not stated)	32.2 µM	
4.32 µM	2.63 µM	20.2 µM	CSc1ccc2c(c1)N(CCCN1CCN(C(=O)CCC(=O)OCC#CCOc3no[n+]([O-])c3S(=O)(=O)c3ccccc3)CC1)c1ccccc1S2	3.97 µM	Ratio IC50 (SK-BR-3 [12]): 6

Compound	IC50 (MCF7 [1])	IC50 (SK-BR-3 [3])	IC50 (MDA-MB-231 [5])	IC50 (SUM-159-PT [6])	other results
O=C(CCC(=O)N1CCN(CCCN2c3ccccc3Sc3ccc(C(F)(F)F)cc32)CC1)OCCOc1no[n+]([O-])c1S(=O)(=O)c1ccccc1	1.36 µM	1.51 µM	7.09 µM	2.2 µM	survival at 24 h, 250 µM [8]: 25.8%; IC50 (KG-1a): 2.2 µM
CSc1ccc2c(c1)N(CCCN1CCN(C(=O)CCC(=O)OCCCCOc3no[n+]([O-])c3S(=O)(=O)c3ccccc3)CC1)c1ccccc1S2	0.84 µM	9.72 µM	3.62 µM	1.14 µM	Ratio IC50 (MDA-MB-231 [10]): 6; Ratio IC50 (SUM-159-PT [11]): 6 - 15; survival at 24 h, 250 µM [8]: 25.8%; IC50 (KG-1a): 1.14 µM; Ratio IC50 (MCF7 [9]): 4 - 13
O=C(CCC(=O)N1CCN(CCCN2c3ccccc3Sc3ccc(C(F)(F)F)cc32)CC1)OCCCCOc1no[n+]([O-])c1S(=O)(=O)c1ccccc1	1.35 µM	64.6 µM	10.2 µM	2.93 µM	Ratio IC50 (SUM-159-PT [11]): 6 - 15; survival at 24 h, 250 µM [8]: 19.4%; IC50 (KG-1a): 2.93 µM; Ratio IC50 (MCF7 [9]): 4 - 13
O=C(CCC(=O)N1CCN(CCCN2c3ccccc3Sc3ccccc32)CC1)OCCCCOc1no[n+]([O-])c1S(=O)(=O)c1ccccc1	2.94 µM	13.6 µM	11.2 µM	1.63 µM	inhibition at 0.37 µM (MCF7 [13]): 33.1%; Activity (SUM-159-PT [14]): 8; Activity (MDA-MB-231 [15]): Dose-dependent effect; inhibition (MDA-MB-231 [16]): Dose-dependent effect; Ratio IC50 (SUM-159-PT [11]): 6 - 15; survival at 24 h, 250 µM [8]: 64.5%; inhibition (SUM-159-PT [17]): Dose-dependent effect; IC50 (KG-1a): 1.63 µM; Activity (SUM-159-PT [4]): 1; inhibition (MCF7 [18]): Dose-dependent effect; Activity (SUM-159-PT [19]): 19; inhibition at 0.74 µM (MCF7 [20]): 11.6%; inhibition [21]: Dose-dependent effect; inhibition at 0.18 µM (MCF7 [22]): 64.4%; Ratio IC50 (MCF7 [9]): 4 - 13
CSc1ccc2c(c1)N(CCCN1CCN(C(=O)CCC(=O)OCCOc3no[n+]([O-])c3S(=O)(=O)c3ccccc3)CC1)c1ccccc1S2	1.85 µM	3.86 µM	3.82 µM	1.2 µM	survival at 24 h, 250 µM [8]: 32.3%; IC50 (KG-1a): 1.2 µM
